Experimental data published in patent US7342025B2, “Substituted C-imidazo[1,2-a]pyridin-3-yl-methylamines” (Gruenenthal GmbH, priority 2002, dated 2008).

Target: nitrogen monoxide synthase (Rattus norvegicus, UniProt P29476)
Experiment: citrulline assay, inhibition of NO synthase
Assay type: biochemical
Method: The IC50 value of each of the example compounds as an inhibitor of NO synthase was determined in a citrulline assay. This assay was carried out as described by D. S. Bredt and S. H. Snyder (Proc. Natl. Acad. Sci. USA (1990), 87, 682-685).

IC50	Compound
4 µM	Cc1ccn2c(CN(C)C)c(C)nc2c1 [Example 1]
2.5 µM	Cc1ccnc(NCc2c(C)nc3cc(C)ccn23)c1 [Example 2, (2,7-Dimethyl-imidazo[1,2-a]pyridin-3-ylmethyl)-(4-methyl-pyridin-2-yl)-amine]
